Results: patent US5231182A, “Method of making certain aryl containing amides” (American Cyanamid Company, priority 1991, dated 1993)

Legend:
[1] = system: Endotoxin induced shock and mortality; assay: Endotoxin induced shock and mortality in mice: low dose, chronic mouse endotoxemia; type: in vivo, Male Balb/c mice; details: dose 10 mg/kg i.p.
Text: (§1) Endotoxin administration produces a shock-like state characterized by vascular permeability changes, hypotension, neutropenia, thrombocytopenia,multiple organ damage and death. The major mediators released after endotoxin injection are TNF (tumor necrosis factor), PAF (platelet activating factor) and […] (interleukin I). PAF administration mimics the signs and symptoms of endotoxin induced shock and death and endotoxin also induces the release of PAF. Therefore, the effects of endotoxin should be blocked with a PAF antagonist.
(§2) Male Balb/c mice (approximately 20 g) are obtained from Charles River Laboratories and used after a one-two week acclimation period. Animals are given (ip) test compound dissolved in saline or water (sonicated and heated) at different time intervals prior to and after the ip injection of endotoxin (usually 2 hours before LPS endotoxin, and 3-4 hours after). Sigma E. Coli endotoxin, 0111:B4, phenol extraction, catalog #L2630 is used for these studies.
For the chronic endotoxin shock model, a lower dose of endotoxin is administered (generally 15 to 20 mg/kg i.p). This dose gives an LD80 in two to four days following LPS administration. Test compounds are given 2 hours before LPS and 3-4 hours after on the first day, followed by 3 or 4 consecutive days of BID dosing. The number of survivors in each group is recorded each day for a period of 5 to 7 days.
Effect of Compounds Given i.p. in Low Dose, Chronic Mouse Endoxemia

[2] = molecular target: T1, PAF receptor (Oryctolagus cuniculus, UniProt G1TEI7); assay: Platelet Activating Factor antagonism in vitro: inhibition of PAF induced platelet aggregation in rabbit platelet rich plasma; type: cell-based, rabbit (New Zealand White)
T1 construct: centrifuged at 800 rpm for 10-15 minutes at room temperature to recover the platelet rich plasma (PRP); endogenous in cells; host or cells: platelets in citrated platelet rich plasma from male New Zealand White rabbits (Oryctolagus cuniculus)
Experimental: Test compounds are evaluated as PAF receptor antagonists in vitro by measuring inhibition of PAF (platelet activating factor) induced platelet aggregation. Platelet aggregation is measured by a modification of the method described in […], et. al., J. Med. Chem., 27 1174, 1984. […] All syringes and pipets are plastic. The blood is gently mixed and immediately centrifuged at 800 rpm for 10-15 minutes at room temperature to recover the platelet rich plasma (PRP). Platelet poor plasma (PPP) is prepared by centrifuging PRP at 2800 rpm for 10 minutes at room temperature. Dilutions (1:3000) of PRP in Isoton® diluent are made and platelet counts are determined on a Coulter Thrombocounter which is standardized with platelet reference standards (Interscience Platelet Control, Portland, Oreg.). PRP platelet counts are adjusted to approximately 400,000-500,000 platelets/μl by the addition of PPP. L-PAF (Platelet Activating Factor) is obtained from Calbiochem. […] All solutions are made up in plastic tubes, stored on ice and protected from heat and light. Solutions are prepared fresh or frozen at -20° C. and used within 48 hours. Incubation mixtures consisted of 400 μl PRP, 50 μl of saline diluent or test compound and 50 μl of PAF agonist. More specifically, 400 μl of PRP is stabilized in a cuvette for 1-2 minutes at 37° C. in the aggregometer to achieve a stable baseline, then 50 μl of saline or test compound is added and incubated for 5 minutes before addition of the challenge concentration of PAF. A submaximal concentration is determined from the dose response curve for PAF for that experiment. In general, the challenge concentration is 5E-8 or IE-7M. Aggregation is monitored for 5 minutes. Samples containing test compound or diluent are run simultaneously for comparison. Test compounds are initially evaluated at a screening concentration of 1E-5M. […] The recording equipment consists of a dual channel Chronolog aggregometer connected to a dual channel 10MV full scale deflection Omniscribe chart recorder (Houston Instruments). The chart recorder is calibrated daily with the use of a suspension of Bio-Rad latex beads (S-X 12 400 mesh) which has a density slightly greater than rabbit PRP. […] These limits defined a full scale deflection. The aggregation traces are analyzed by a digitizing method (C. Kohler and B. Zoltan, J. Pharm. Methods, 12, 113, 1984) with x, y coordinate data stored in a computer file. A suitable program computes parameters of interest such as the magnitude of aggregation. | ^a dose of compound that gives the indicated % inhibition. | ^b the % inhibition of PAF induced platelet aggregation. | ^c the molar concentration of compound that will inhibit 50% of the | platelet aggretation induced by PAF given at the indicated PAF challenge | concentration.

[3] = system: Endotoxin induced shock and mortality; assay: Endotoxin induced shock and mortality in mice: high dose acute mouse endotoxemia; type: in vivo, Male Balb/c mice; details: administered ip prior to a lethal ip injection of endotoxin
Text: as §1, §2
This LD value is approximately 50 mg/kg i.p. The number of survivors in each group (control or treated with test compound) is recorded after 24, 48 or 72 hours and the treated groups (receiving test compound and endotoxin) are compared with the untreated, control group (receiving endotoxin only) or saline control (receiving saline and endotoxin).
Effect of Compounds Given I.P. in High Dose Acute Mouse Endotoxemia […]

[4] = system: PAF induced lethality; assay: PAF induced lethality in mice; type: in vivo; details: PAF 150 μg/kg IV
Experimental: PAF given I.V. to mice causes an immediate hypotensive shock leading to death in 1 hour or less. Compounds are given intraperitoneally or P.O. at various times before the PAF challenge. Animals alive after 2 hours are counted and the activity of test compounds expressed as % survival corrected for any control (saline treated) animals which survived the PAF challenge.
Effect of Compound Given I.V. or P.O. in Protecting
Mice from a Lethal Challenge of PAF^a
^a lethal challenge of PAF is 150 μg/kg IV.

T1 sequence (G1TEI7 1-342): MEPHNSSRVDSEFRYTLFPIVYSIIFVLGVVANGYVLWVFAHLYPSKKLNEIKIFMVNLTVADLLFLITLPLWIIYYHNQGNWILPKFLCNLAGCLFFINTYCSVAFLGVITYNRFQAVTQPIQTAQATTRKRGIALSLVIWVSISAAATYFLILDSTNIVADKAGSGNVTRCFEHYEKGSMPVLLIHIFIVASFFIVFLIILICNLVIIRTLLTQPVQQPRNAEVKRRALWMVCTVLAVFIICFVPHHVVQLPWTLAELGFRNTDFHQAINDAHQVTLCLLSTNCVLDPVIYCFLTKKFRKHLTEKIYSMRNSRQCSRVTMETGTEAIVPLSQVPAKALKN

**Q.** How did the “% Survival” value ([1]; day 0) turn out when CCCCCCCCCCCCCCOc1cccc(CC(=O)Nc2cccc(C[n+]3csc(C)c3)c2)c1.[Br-] [5-Methyl-3-[[3-[[[3-(tetradecyloxy)phenyl]acetyl]amino]phenyl]methyl]thiazolium bromide] was run?
**A.** Its value is 100%.

**Q.** What about the “No Surv./tot.” value ([1]; day 0) of the same compound?
**A.** The value was 30/30.

**Q.** What about the “% Survival” value ([1]; day 1) of the same compound?
**A.** The value was 100%.

**Q.** And the “No Surv./tot.” value ([1]; day 1)?
**A.** The value was 30/30.

**Q.** What about the “% Survival” value ([1]; day 2) of the same compound?
**A.** Its value is 63%.

**Q.** What about the “No Surv./tot.” value ([1]; day 2) of the same compound?
**A.** The value was 19/30.

**Q.** And the “% Survival” value ([1]; day 3)?
**A.** Its value is 46%.

**Q.** And the “No Surv./tot.” value ([1]; day 3)?
**A.** Its value is 14/30.

**Q.** What about the “% Survival” value ([1]; day 4) of the same compound?
**A.** The value was 43%.

**Q.** What about the “No Surv./tot.” value ([1]; day 4) of the same compound?
**A.** The value was 13/30.

**Q.** What about the “% Survival” value ([1]; day 5) of the same compound?
**A.** The value was 43%.

**Q.** And the “No Surv./tot.” value ([1]; day 5)?
**A.** Its value is 12/30.

**Q.** And the “No Surv./tot.” value ([1]; day 6)?
**A.** The value was 12/30.

**Q.** And the “% Survival” value ([1]; day 7)?
**A.** The value was 43%.

**Q.** And the “No Surv./tot.” value ([1]; day 7)?
**A.** Its value is 12/30.

**Q.** And the “% INH (inhibition of PAF induced platelet aggregation)” value ([2]; dose .00001 M, PAF chall conc 5E-9 M)?
**A.** Its value is 100.0%.

**Q.** What about the “PAF antagonism (in words)” value ([2]; in vitro platelet aggregation studies) of the same compound?
**A.** The value was “known to be a PAF antagonist”.

**Q.** What about the “activity against lethal ip injection of endotoxin” value [3] of the same compound?
**A.** Its value is “did show some activity”.

**Q.** What about the “% Survival” value ([4]; P.O. 5 mg/kg) of the same compound?
**A.** The value was 40%.

**Q.** And the “% Survival” value ([4]; P.O. 20 mg/kg)?
**A.** Its value is 59%.
